Measurements: patent US6291657A (priority 1993, dated 2001)
“Also recorded” adds a separate entry of the source.

Columns and labels:
WEHI-3B cell lysosomes = assay: Transmission electron microscopy of lysosomes of CBE treated WEHI-3B cells; assay type: cell-based, murine; details: transmission electron microscopy (FIG. 6)
β-glucosidases = details: Legler & Pohl, 1986; cited from earlier work
[1] = tested on: glycolipid biosynthesis in HL-60 cells; assay: Inhibition of glycolipid biosynthesis in HL-60 cells, [14C]-palmitic acid labelling, 1D-TLC;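 for all read-outs here: cells cultured 24 h with or without test compound, total cellular lipids resolved by one-dimensional TLC and detected by autoradiography, inhibition shown as missing Glc-Cer and gangliosides versus untreated cells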; assay type: cell-based, human; details: for effect of N-alkyl chain length on inhibition of glycolipid biosynthesis (loss of detectable Glc-Cer): HL-60, 0.5 mM, 1D-TLC (FIG. 4)
[2] = tested on: Glc-Cer accumulation in WEHI-3B murine macrophage cells; assay: In vitro Gaucher's disease model: CBE induced glycolipid storage in WEHI-3B cells, 1D-TLC; assay type: cell-based; details: CBE
Description: In this model, the murine macrophage cell line WEHI-3B was cultured in the presence of an irreversible glucocerebrosidase inhibitor, conduritol β epoxide (CBE), to mimic the inherited disorder found in Gaucher's disease. WEHI-3B cells are well-known, widely distributed and readily available murine macrophage cells. They are described in Cancer Res. 37, 546-550 (1977), and are readily available from the American Type Culture Collection, Rockville, Md, under accession number ATCC TIB 68. The compounds of the invention prevent lysosomal glycolipid storage which is useful for the management of Gaucher's disease and other glycolipid storage disorders as illustrated hereinafter in Table 3. Gaucher's disease is an autosomal recessive disorder characterized by an impaired ability to degrade glucocerebroside (glucosyl ceramide, Glc-Cer) due to mutations in the gene encoding β-glucocerebrosidase (β-D-glucosyl-N-acylsphingosine glucohydrolase, EC 3.2.1.45). This defect results in the lysosomal accumulation of Glc-Cer in cells of the macrophage-monocyte system [Barranger and Ginns, in The Metabolic Basis of Inherited Diseases, ed. Scriver et al., pp. 1677-1698, McGraw-Hill, New York, (1989); Beutler, Science 256, 794-799 (1992)]. By slowing the rate of glycolipid synthesis, the impaired catabolism of Glc-Cer can be offset, thereby leading to the maintenance of a balanced level of Glc-Cer.
FIGS. 5 and 6 show the analysis of NB-DNJ and NB-DGJ in an in vitro Gaucher's disease model.
The in vitro Gaucher's disease model was prepared as follows: WEHI-3B cells (American Type Culture Collection, Rockville, Md., U.S.A.) were maintained in logarithmic phase growth for 14 days in RPMI-1640 medium, 10% FCS, in the presence or absence of 50 μM conduritol β epoxide (CBE, Toronto Research Chemicals, Downsview, Canada) with or without NB-DNJ or NB-DGJ. Cells were passaged every 3 days and compound concentrations maintained throughout. Equal cell numbers (5×10^6) were harvested, extracted in 1 ml chloroform: methanol (2:1 v/v) overnight at 4° C., the extracts centrifuged, the chloroform:methanol extract retained and the pellet re-extracted as above for 2 hr. at room temperature. Pooled extracts were dried under nitrogen, re-dissolved in 10 μl chloroform:methanol (2:1 v/v) and separated by 1D-TLC in chloroform:methanol:water […]. Plates were air dried and visualized using α-naphthol (1% w/v in methanol) followed by 50% (v/v) sulphuric acid.

[3] = tested on: glycolipid and phospholipid species in HL-60 cells; assay: 2D-TLC analysis of total HL-60 lipids labelled with [14C]-palmitic acid; assay type: cell-based, human; details: 2D-TLC (FIG. 2)
Description: 2D-TLC separation was made of total HL-60 lipids labelled with [^14 C]-palmitic acid. Cells were treated with either 0.5 mM NB-DNJ or NB-DGJ or untreated (UT). Lipids were assigned as follows (untreated cells, lefthand panel, FIG. 2A): 1, gangliosides; 2, lysophospatidylcholine; 3, ceramide phosphorylcholine; 4, ceramide phosphorylethanolamine; 5, phospatidylcholine; 6, phosphatidylinositol; 7, phosphatidylethanolamine; 8, phosphatidylglycerol; 9, diglycosylceramide; 10, monoglycosylceramide; 11, cholesterol/fatty acids/neutral lipids; N and N* are unknowns; and 0 is the sample origin. Following NB-DNJ and NB-DGJ treatment (middle and righthand panels, FIGS. 2B and 2C, respectively) species 1 (gangliosides);9 (diglycosylceramide); 10 (monoglycosylceramide) and N* (unknown) were absent. The radiolabelled lipids were visualized by autoradiography.
HL-60 cells were cultured by conventional procedure as previously described by Platt et al., Eur. J. Biochem. 208, 187-193 (1992). HL-60 cells at 5×10^4 cells/ml were cultured in the presence or absence of imino sugars for 24 hr. For labelling, the two dimensional thin layer chromatography (2D-TLC) conventional method of Butters and Hughes was followed [In Vitro 17, 831-838 (1981)]. Briefly, [^14 C]-palmitic acid (56.8 mCi/mmol, ICN/Flow) was added as a sonicated preparation in foetal calf serum (FCS, Techgen, London, U.K., 0.5 μCi/ml) and the cells cultured for a further 3 days maintaining the imino sugars in the medium. The cells were harvested, washed three times with phosphate buffered saline (PBS), extracted in 1 ml chloroform:methanol (2:1 v/v) and separated by 1 dimensional TLC, loading equal counts (1D-TLC, chloroform:methanol:water (65:25:4)). For two dimensional separations the one dimensional separation was performed as described above, the plate dried overnight under vacuum and separated in the second dimension using a solvent of tetrahydrofuran: dimethoxymethane:methanol:water (10:6:4:1). Plates were air dried and exposed to Hyperfilm-MP high performance autoradiography film (Amersham).

[4] = tested on: N-linked oligosaccharide processing of gp120 in CHO cells (α-glucosidases I and II); assay: Endo H sensitivity of gp120 expressed in CHO cells (N-linked oligosaccharide processing); assay type: cell-based, Chinese hamster; details: 0.5 mM or 5 mM (FIG. 7)
Description: The arrows indicate the molecular weight of the untreated gp120 (120 kDa) and post endo H digestion (60 kDa). An additional band of low molecular weight (approximately 60 kDa) was present in some lanes and is a non-specific protein precipitated by the solid phase matrix.
The culture of CHO cells expressing soluble recombinant gp120 (from Dr. P. Stevens, MRC AIDS Directed Programme Reagent Project) and the radiolabelling of these cells was carried out by conventional procedure as described by Karlsson et al., J. Biol. Chem. 268, 570-576 (1993). Briefly, CHO cells were harvested mechanically, washed three times with phosphate buffered saline, 0.1M pH 7.2 (PBS) and resuspended in methionine- and cysteine-free RPMI-1640 medium (ICN-Flow Laboratories, High Wycombe, Bucks, U.K.) supplemented with 1% dialysed FCS. Cells (10^7 /ml) were preincubated in the presence or absence of NB-DNJ or NB-DGJ for 1 hr prior to the addition of 100 μCi/ml Tran^35 S-label (ICN-Flow) for 4 hr. The supernatants were collected and concentrated tenfold using a 30 kDa cut-off membrane (Amicon, Danvers, Mass., U.S.A.).
Immunoprecipitations were performed by conventional procedure as described by Karlsson supra. Supernatants were incubated with the mAb ABT 1001 monoclonal antibody (American Biotechnologies Inc., Cambridge, Mass., U.S.A.) at 0.5 μg/100 μl of supernatant for 30 min. at room temperature followed by sheep anti-mouse IgG1-coated magnetic beads (Dynal Ltd., Wirral, Merseyside, U.K., 1.2×10^7 beads per sample) for 1 hr. at 4° C. The beads were washed three times with 2% TRITON® X-100 in PBS and three times with PBS. Gp120 was eluted in […] reducing SDS-PAGE sample buffer with heating (95° C., 5 min.). Each sample was divided into two equal aliquots and 25 μl of dH2 O added to give a final volume of 50 μl. To one half of each sample 2 μl of endoglycosidase H (endo H, 1 unit/ml, Boehringer Mannheim Ltd., Lewes, Sussex, U.K.) was added and the other half left untreated. […]

[5] = tested on: oligosaccharide biosynthesis in HL-60 cells; assay: Glycopeptide analysis by Con A-SEPHAROSE chromatography, HL-60 cells; assay type: cell-based, human
[6] = tested on: oligosaccharide biosynthesis in BW5147 cells; assay: Glycopeptide analysis by Con A-SEPHAROSE chromatography, BW5147 cells; assay type: cell-based, murine
α-glucosidase I and II = assay: Inhibition of purified processing α-glucosidase I and II; assay type: biochemical; details: mixture of purified α-glucosidases I and II
Description: Porcine liver α-glucosidase I and rat liver α-glucosidase II were purified to homogeneity and assayed by conventional procedure using a [^14 C]-glucose labelled Glc3 Man9 GlcNAc2 substrate as previously described by Karlsson et al., J. Biol. Chem. 268, 570-576 (1993).
Enzymes were assayed according to procedure described hereinbefore using
The data from FIG. 8 were […]

[7] = biological target: UDP-glucose:N-acylsphingosine glucosyltransferase; assay: Inhibition of UDP-glucose:N-acylsphingosine glucosyltransferase; assay type: biochemical, rat brain, mouse macrophage (WEHI-3B); details: rat brain or mouse macrophage homogenates; read-out: IC50
[8] = tested on: cholera toxin binding sites on H9 cells; assay type: cell-based, human; details: h9 cells, 4320 min
HL-60 cells = assay: Cytotoxicity in the dose range tested; assay type: cell-based, human
[9] = tested on: N-linked oligosaccharide processing of gp120 in CHO cells (α-glucosidases I and II); details: previously tested [Karlsson et al.]; cited from earlier work
[10] = tested on: glucocerebrosidase in WEHI-3B cells; details: WEHI-3B cells in the absence of CBE; cited from earlier work
α-glucosidase I = details: cell culture systems, Karlsson et al.; cited from earlier work

O[C@H]1[C@H](O)[C@@H](O)[C@@H]2O[C@@H]2[C@@H]1O [CBE, conduritol β epoxide]
glycolipid accumulation in lysosomes (WEHI-3B cell lysosomes): glycolipid accumulation observed in the lysosomes

CCCCCCCN1C[C@H](O)[C@@H](O)[C@@H](O)[C@H]1CO [N-heptyldeoxygalactonojirimycin]
affinity towards certain β-glucosidases (β-glucosidases): modest increase in the affinity

CCCCCCN1C[C@H](O)[C@@H](O)[C@@H](O)[C@H]1CO [N-hexyl DGJ, N-hexyl deoxygalactonojirimycin]
effect of N-alkyl chain length on inhibition of glycolipid biosynthesis (loss of detectable Glc-Cer) [1]: completely prevented glycolipid biosynthesis; also recorded: completely inhibited glycolipid biosynthesis
prevention of glycolipid storage in in vitro Gaucher's disease model (in words) [2]: offset glucoceramide accumulation

CCCCN1C[C@H](O)[C@@H](O)[C@H](O)[C@H]1CO [NB-DNJ, N-Butyldeoxynojirimycin]
lipid species whose biosynthesis was inhibited ([1]; HL-60, 500 μM, 1D-TLC): inhibited the biosynthesis of Glc-Cer, gangliosides and an unknown lipid species
inhibition of glycolipid biosynthesis ([1]; HL-60, 500 μM, 1D-TLC (FIG. 1)): specifically inhibited glycolipid biosynthesis
effect of N-alkyl chain length on inhibition of glycolipid biosynthesis (loss of detectable Glc-Cer) [1]: completely inhibited glycolipid biosynthesis
minimal effective concentration ([1]; Homo sapiens, HL-60, 1D-TLC (FIG. 3), partial inhibition, read-out: concentrations as low as which partial inhibition occurred): 0.5 to 5 µM
gangliosides, unknown lipid (N*), mono and dihexaside species following treatment ([3]; HL-60, 0.5 mM): absent
depletion of glycolipid species ([3]; HL-60, 500 μM): total depletion of glycolipid species
glycolipid accumulation in lysosomes (WEHI-3B cell lysosomes): prevented the glycolipid accumulation
endo H sensitivity of gp120 N-linked glycans [4]: fully endo H sensitive
Total 3H-mannose recovered ([5]; HL-60): 913095 cpm
Bi-antennary ([5]; HL-60, percentage of radiolabelled glycopeptides eluted with 10 mM methylglucoside): 20.0%
Oligo-mannose & hybrid ([5]; HL-60, percentage of radiolabelled glycopeptides eluted with 500 mM methylmannoside): 60.5%
Tetra- & Tri-antennary ([5]; HL-60, percentage of radiolabelled glycopeptides non-bound): 19.5%
glycopeptide profile by Con A-SEPHAROSE chromatography ([5]; HL-60 and BW5147): changes the affinity of glycopeptides
proportion of unbound glycans (tetra- and tri-antennary species) ([5]; HL-60 and BW5147): decreases
proportion of high mannose/hybrid glycans tightly bound to Con A-SEPHAROSE ([5]; HL-60 and BW5147, eluted with 500 mM methylmannoside): increase
Total 3H-mannose recovered [6]: 686026 cpm
Bi-antennary ([6]; percentage of radiolabelled glycopeptides eluted with 10 mM methylglucoside): 4.9%
Oligo-mannose & hybrid ([6]; percentage of radiolabelled glycopeptides eluted with 500 mM methylmannoside): 68.3%
Tetra- & Tri-antennary ([6]; percentage of radiolabelled glycopeptides non-bound): 26.8%
IC50 (α-glucosidase I and II): 0.36 µM
IC50 [7]: 2.95 µM
reduction in cholera toxin binding [8]: approximately 90%
cytotoxicity (HL-60 cells): non-cytotoxic
endo H sensitivity of high mannose oligosaccharides on gp120 [9]: fully sensitive to endo H
Glc-Cer accumulation [10]: accumulated Glc-Cer
concentration for α-glucosidase I inhibition (α-glucosidase I): 0.5 mM
